Patent US20240270762A1, “PENICILLIN-BINDING PROTEIN INHIBITORS” (priority 2021, published 2024)
≈ marks a conversion by molar mass, not a printed value.

Tests used:
N. gonorrhoeae FA1090 = experiment: Liquid broth MIC in Fastidious broth; conditions: Neisseria gonorrhoeae, FA1090, read-out: Minimum Inhibitory Concentration, FA 1090
N. gonorrhoeae MS11 = experiment: Liquid broth MIC in Fastidious broth; conditions: Neisseria gonorrhoeae, MS11, read-out: Minimum Inhibitory Concentration, MS11
[1] = test system: N. gonorrhoeae ATCC 49226; experiment: Liquid broth MIC in Fastidious broth; conditions: Neisseria gonorrhoeae, ATCC49226, read-out: Minimum Inhibitory Concentration, ATCC 49226
[2] = molecular target: T1, PBP1a from Acinetobacter baumannii (ATCC 19606) (Acinetobacter baumannii, UniProt A0ABX6CK30); experiment: Bocillin-FL fluorescence polarization competition binding, A. baumannii PBP1a; conditions: fluorescence polarization competition binding assay using Bocillin-FL; read-out: A. baumannii PBP1a Potency
T1 sequence (A0ABX6CK30 1-851): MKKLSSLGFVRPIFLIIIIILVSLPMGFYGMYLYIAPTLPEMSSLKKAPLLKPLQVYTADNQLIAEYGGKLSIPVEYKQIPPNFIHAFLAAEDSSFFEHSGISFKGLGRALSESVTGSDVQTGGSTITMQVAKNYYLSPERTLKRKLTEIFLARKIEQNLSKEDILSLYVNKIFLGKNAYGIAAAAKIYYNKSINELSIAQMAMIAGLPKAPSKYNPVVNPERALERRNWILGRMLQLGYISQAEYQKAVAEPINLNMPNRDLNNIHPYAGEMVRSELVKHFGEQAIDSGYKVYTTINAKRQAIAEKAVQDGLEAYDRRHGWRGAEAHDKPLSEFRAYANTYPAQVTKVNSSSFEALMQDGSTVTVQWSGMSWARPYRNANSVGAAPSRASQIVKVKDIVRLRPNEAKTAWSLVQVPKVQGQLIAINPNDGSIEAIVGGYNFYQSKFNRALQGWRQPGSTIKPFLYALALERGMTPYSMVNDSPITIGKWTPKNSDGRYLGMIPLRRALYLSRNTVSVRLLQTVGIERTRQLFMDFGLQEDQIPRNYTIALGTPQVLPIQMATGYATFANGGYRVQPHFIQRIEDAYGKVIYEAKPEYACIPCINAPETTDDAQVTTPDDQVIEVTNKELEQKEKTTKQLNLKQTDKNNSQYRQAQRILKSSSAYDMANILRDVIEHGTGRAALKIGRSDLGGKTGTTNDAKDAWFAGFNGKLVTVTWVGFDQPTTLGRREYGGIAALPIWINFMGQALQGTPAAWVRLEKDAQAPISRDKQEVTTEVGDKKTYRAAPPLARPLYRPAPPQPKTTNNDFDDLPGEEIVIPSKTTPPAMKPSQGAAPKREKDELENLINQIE
Method in brief: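 Purified PBPs pre-incubated with inhibitor (E. coli PBP3 1.5 μM, 30 min; P. aeruginosa PBP3 0.75 μM, A. baumannii PBP1a 1 μM and PBP3 0.2 μM, 15 min), then Bocillin-FL 0.1 μM (0.05 μM for PBP1a) added; FP read up to 60 min. EC50 = concentration halving bound Bocillin-FL.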

N. gonorrhoeae WHO Z = experiment: Liquid broth MIC in Fastidious broth; conditions: Neisseria gonorrhoeae, read-out: Minimum Inhibitory Concentration, WHO Z
N. gonorrhoeae WHO K = experiment: Liquid broth MIC in Fastidious broth; conditions: Neisseria gonorrhoeae, read-out: Minimum Inhibitory Concentration, WHO K
N. gonorrhoeae CDC-0197 = experiment: Liquid broth MIC in Fastidious broth; conditions: Neisseria gonorrhoeae, CDC0197, read-out: Minimum Inhibitory Concentration, CDC-0197
N. gonorrhoeae WHO Q = experiment: Liquid broth MIC in Fastidious broth; conditions: Neisseria gonorrhoeae, read-out: Minimum Inhibitory Concentration, WHO Q

| SMILES | MIC (N. gonorrhoeae FA1090) [µg/mL] | MIC (N. gonorrhoeae MS11) [µg/mL] | MIC [1] [µg/mL] | IC50 [2] [µM] | MIC (N. gonorrhoeae WHO Z) [µg/mL] | MIC (N. gonorrhoeae WHO K) [µg/mL] | MIC (N. gonorrhoeae CDC-0197) [µg/mL] | MIC (N. gonorrhoeae WHO Q) [µg/mL] |
| --- | --- | --- | --- | --- | --- | --- | --- | --- |
| O=C(O)c1c(F)ccc2c1OB(O)[C@@H](NC(=O)C(NC(=O)N1CCN(Cc3ccc(O)c(O)c3Cl)C(=O)C1=O)c1cc(F)c(O)c(O)c1Cl)C2 (stereo partly drawn) [Example 292, (3R)-3-(2-(4-(2-chloro-3,4-dihydroxybenzyl)-2,3-dioxopiperazine-1-carboxamido)-2-(2-chloro-5-fluoro-3,4-dihydroxyphenyl)acetamido)-7-fluoro-2-hydroxy-3,4-dihydro-2H-benzo[e][1,2]oxaborinine-8-carboxylic acid] | 16 to 32 (≈ 21.6 to 43.3 µM) | > 64 | > 64 | > 250 | > 64 | > 64 | > 64 | > 64 |
| O=C(O)c1c(F)ccc2c1OB(O)[C@@H](NC(=O)C(NC(=O)N1CCN(C3CCN(C(=O)c4cccc(O)c4)CC3)C(=O)C1=O)c1cc(F)c(O)c(O)c1Cl)C2 (stereo partly drawn) [Example 293, (3R)-3-(2-(2-chloro-5-fluoro-3,4-dihydroxyphenyl)-2-(4-(1-(3-hydroxybenzoyl)piperidin-4-yl)-2,3-dioxopiperazine-1-carboxamido)acetamido)-7-fluoro-2-hydroxy-3,4-dihydro-2H-benzo[e][1,2]oxaborinine-8-carboxylic acid] | 1 to 2 (≈ 1.27 to 2.54 µM) | 16 to 32 (≈ 20.4 to 40.7 µM) | 16 to 32 (≈ 20.4 to 40.7 µM) | > 250 | > 64 | > 64 | > 64 | > 64 |
| O=C(NCCCN1CCN(C(=O)N[C@@H](C(=O)N[C@H]2Cc3ccc(F)c(C(=O)O)c3OB2O)c2cc(F)c(O)c(O)c2Cl)C(=O)C1=O)c1ccncc1 [Example 294, (R)-3-((R)-2-(2-chloro-5-fluoro-3,4-dihydroxyphenyl)-2-(4-(3-(isonicotinamido)propyl)-2,3-dioxopiperazine-1-carboxamido)acetamido)-7-fluoro-2-hydroxy-3,4-dihydro-2H-benzo[e][1,2]oxaborinine-8-carboxylic acid] | 1 to 2 (≈ 1.34 to 2.69 µM) | 16 to 32 (≈ 21.5 to 43 µM) | 16 to 32 (≈ 21.5 to 43 µM) | > 250 | 16 to 32 (≈ 21.5 to 43 µM) | > 64 | > 64 | > 64 |
| O=C(NCCCN1CCN(C(=O)NC(C(=O)N[C@H]2Cc3ccc(F)c(C(=O)O)c3OB2O)c2cc(F)c(O)c(O)c2Cl)C(=O)C1=O)c1ccncc1Cl (stereo partly drawn) [Example 295, (3R)-3-(2-(2-chloro-5-fluoro-3,4-dihydroxyphenyl)-2-(4-(3-(3-chloroisonicotinamido)propyl)-2,3-dioxopiperazine-1-carboxamido)acetamido)-7-fluoro-2-hydroxy-3,4-dihydro-2H-benzo[e][1,2]oxaborinine-8-carboxylic acid] | 1 to 2 (≈ 1.28 to 2.57 µM) | 16 to 32 (≈ 20.5 to 41.1 µM) | 16 to 32 (≈ 20.5 to 41.1 µM) | > 250 | > 64 | > 64 | > 64 | > 64 |
| O=C(NCCCN1CCN(C(=O)N[C@@H](C(=O)N[C@H]2Cc3ccc(F)c(C(=O)O)c3OB2O)c2cc(F)c(O)c(O)c2Cl)C(=O)C1=O)c1ccncc1O [Example 296, (R)-3-((R)-2-(2-chloro-5-fluoro-3,4-dihydroxyphenyl)-2-(4-(3-(3-hydroxyisonicotinamido)propyl)-2,3-dioxopiperazine-1-carboxamido)acetamido)-7-fluoro-2-hydroxy-3,4-dihydro-2H-benzo[e][1,2]oxaborinine-8-carboxylic acid] | 1 to 2 (≈ 1.31 to 2.63 µM) | 16 to 32 (≈ 21 to 42.1 µM) | 16 to 32 (≈ 21 to 42.1 µM) | > 250 | > 64 | > 64 | > 64 | > 64 |
| Cc1cnccc1C(=O)NCCCN1CCN(C(=O)NC(C(=O)N[C@H]2Cc3ccc(F)c(C(=O)O)c3OB2O)c2cc(F)c(O)c(O)c2Cl)C(=O)C1=O (stereo partly drawn) [Example 297, (3R)-3-(2-(2-chloro-5-fluoro-3,4-dihydroxyphenyl)-2-(4-(3-(3-methylisonicotinamido)propyl)-2,3-dioxopiperazine-1-carboxamido)acetamido)-7-fluoro-2-hydroxy-3,4-dihydro-2H-benzo[e][1,2]oxaborinine-8-carboxylic acid] | 1 to 2 (≈ 1.32 to 2.64 µM) | 16 to 32 (≈ 21.1 to 42.2 µM) | 16 to 32 (≈ 21.1 to 42.2 µM) | > 250 | > 64 | > 64 | > 64 | > 64 |
| Cc1cc(C(=O)NCCCN2CCN(C(=O)N[C@@H](C(=O)N[C@H]3Cc4ccc(F)c(C(=O)O)c4OB3O)c3cc(F)c(O)c(O)c3Cl)C(=O)C2=O)ccn1 [Example 298, (R)-3-((R)-2-(2-chloro-5-fluoro-3,4-dihydroxyphenyl)-2-(4-(3-(2-methylisonicotinamido)propyl)-2,3-dioxopiperazine-1-carboxamido)acetamido)-7-fluoro-2-hydroxy-3,4-dihydro-2H-benzo[e][1,2]oxaborinine-8-carboxylic acid] | 1 to 2 (≈ 1.32 to 2.64 µM) | 16 to 32 (≈ 21.1 to 42.2 µM) | 16 to 32 (≈ 21.1 to 42.2 µM) | > 250 | > 64 | > 64 | > 64 | > 64 |
| O=C(NCCCN1CCN(C(=O)N[C@H](C(=O)N[C@H]2Cc3ccc(F)c(C(=O)O)c3OB2O)c2cc(F)c(O)c(O)c2Cl)C(=O)C1=O)c1ccnc(F)c1F [Example 299, (R)-3-((S)-2-(2-chloro-5-fluoro-3,4-dihydroxyphenyl)-2-(4-(3-(2,3-difluoroisonicotinamido)propyl)-2,3-dioxopiperazine-1-carboxamido)acetamido)-7-fluoro-2-hydroxy-3,4-dihydro-2H-benzo[e][1,2]oxaborinine-8-carboxylic acid] | 16 to 32 (≈ 20.5 to 41 µM) | > 64 | > 64 | > 250 | > 64 | > 64 | > 64 | > 64 |
| O=C(NCCCN1CCN(C(=O)N[C@@H](C(=O)N[C@H]2Cc3ccc(F)c(C(=O)O)c3OB2O)c2cc(F)c(O)c(O)c2Cl)C(=O)C1=O)c1ccnc(F)c1F [Example 300, (R)-3-((R)-2-(2-chloro-5-fluoro-3,4-dihydroxyphenyl)-2-(4-(3-(2,3-difluoroisonicotinamido)propyl)-2,3-dioxopiperazine-1-carboxamido)acetamido)-7-fluoro-2-hydroxy-3,4-dihydro-2H-benzo[e][1,2]oxaborinine-8-carboxylic acid] | 4 to 8 (≈ 5.12 to 10.2 µM) | 16 to 32 (≈ 20.5 to 41 µM) | 16 to 32 (≈ 20.5 to 41 µM) | > 250 | > 64 | > 64 | > 64 | > 64 |
| Cc1cc(C(=O)NCCCN2CCN(C(=O)NC(C(=O)N[C@H]3Cc4ccc(F)c(C(=O)O)c4OB3O)c3cc(F)c(O)c(O)c3Cl)C(=O)C2=O)c(F)cn1 (stereo partly drawn) [Example 301, (3R)-3-(2-(2-chloro-5-fluoro-3,4-dihydroxyphenyl)-2-(4-(3-(5-fluoro-2-methylisonicotinamido)propyl)-2,3-dioxopiperazine-1-carboxamido)acetamido)-7-fluoro-2-hydroxy-3,4-dihydro-2H-benzo[e][1,2]oxaborinine-8-carboxylic acid] | 4 to 8 (≈ 5.15 to 10.3 µM) | 16 to 32 (≈ 20.6 to 41.2 µM) | 16 to 32 (≈ 20.6 to 41.2 µM) | > 250 | > 64 | > 64 | > 64 | > 64 |
